What was measured:
Format in all cases: in vivo
[1] = system: Veronica persica (VERPE); assay: Herbicidal post-emergence action, section B (Table B10); settings: Veronica persica, post-emergence, 504 h; application rate 1280 g/ha; visual rating about 3 weeks after treatment vs untreated controls; read-out: post-emergence activity against VERPE in %
Protocol: (§1) Seeds of mono- and dicotyledonous weed plants were placed in plastic pots in sandy loam soil (doubly sown with in each case one species of mono- or dicotyledonous weed plants per pot), covered with soil and cultivated in a greenhouse under controlled growth conditions. 2 to 3 weeks after sowing, the test plants were treated at the one-leaf stage. The compounds of the invention, formulated in the form of wettable powders (WP) or as emulsion concentrates (EC), were applied onto the green parts of the plants as aqueous suspension or emulsion with addition of 0.5% additive at a water application rate of 600 liters per hectare (converted). After the test plants had been kept in the greenhouse under optimum growth conditions for about 3 weeks, the activity of the preparations was rated visually in comparison to untreated controls. For example, 100% activity=the plants have died, 0% activity=like control plants.

[2] = system: Stellaria media (STEME); assay: Herbicidal pre-emergence action, section A (Table A9); settings: Stellaria media, 504 h, application rate 1280 g/ha, read-out: pre-emergence activity against STEME in %
Source text: (§2) Seeds of mono- and dicotyledonous weed plants were sown in plastic pots (double sowings with one species of mono- and one species of dicotyledonous weed plants per pot), in sandy loam, and covered with soil. The compounds according to the invention, formulated in the form of wettable powders (WP) or as emulsifiable concentrates (EC), were applied to the surface of the covering soil as aqueous suspension or emulsion, with the addition of 0.5% of an additive, at an application rate of 600 l of water per hectare (converted). Following treatment, the pots were placed in a greenhouse and kept under optimum growth conditions for the test plants. The visual grading of the damage to the test plants was carried out after ca. 3 weeks in comparison to untreated controls (herbicidal effect in percent (%): 100% effect=plants have died off, 0% effect=as control plants).

[3] = system: Kochia scoparia (KCHSC); assay: Herbicidal post-emergence action, section B (Table B4); settings: Bassia scoparia, post-emergence, 504 h; application rate 320 g/ha; visual rating about 3 weeks after treatment vs untreated controls; read-out: post-emergence activity against KCHSC in %
Protocol: as §1

[4] = system: Amaranthus retroflexus (AMARE); assay: Herbicidal post-emergence action, section B (Table B11); settings: Amaranthus retroflexus, post-emergence, 504 h; application rate 320 g/ha; visual rating about 3 weeks after treatment vs untreated controls; read-out: post-emergence activity against AMARE in %
Protocol: as §1

[5] = system: Setaria viridis (SETVI); assay: Herbicidal pre-emergence action, section A (Table A8); settings: Setaria viridis, 504 h, application rate 1280 g/ha, read-out: pre-emergence activity against SETVI in %
Source text: as §2

[6] = system: Kochia scoparia (KCHSC); assay: Herbicidal pre-emergence action, section A (Table A4); settings: Bassia scoparia, pre-emergence, 504 h; application rate 320 g/ha; visual grading after ca. 3 weeks vs untreated controls; read-out: pre-emergence activity against KCHSC in %
Source text: as §2

[7] = system: Stellaria media (STEME); assay: Herbicidal post-emergence action, section B (Table B9); settings: Stellaria media, post-emergence, 504 h; application rate 1280 g/ha; visual rating about 3 weeks after treatment vs untreated controls; read-out: post-emergence activity against STEME in %
Protocol: as §1

[8] = system: Echinochloa crus-galli (ECHCG); assay: Herbicidal post-emergence action, section B (Table B3); settings: Echinochloa crus-galli, 504 h, application rate 1280 g/ha, rated visually after about 3 weeks, read-out: post-emergence activity against ECHCG in %
Protocol: as §1

[9] = system: Digitaria sanguinalis (DIGSA); assay: Herbicidal pre-emergence action, section A (Table A12); settings: Digitaria sanguinalis, 504 h, application rate 1280 g/ha, read-out: pre-emergence activity against DIGSA in %
Source text: as §2

[10] = system: Abutilon theophrasti (ABUTH); assay: Herbicidal post-emergence action, section B (Table B1); settings: Abutilon theophrasti, 504 h, application rate 1280 g/ha, rated visually after about 3 weeks, read-out: post-emergence activity against ABUTH in %
Protocol: as §1

[11] = system: Veronica persica (VERPE); assay: Herbicidal pre-emergence action, section A (Table A10); settings: Veronica persica, 504 h, application rate 1280 g/ha, read-out: pre-emergence activity against VERPE in %
Source text: as §2

[12] = system: Poa annua (POAAN); assay: Herbicidal post-emergence action, section B (Table B7); settings: Poa annua, post-emergence, 504 h; application rate 1280 g/ha; visual rating about 3 weeks after treatment vs untreated controls; read-out: post-emergence activity against POAAN in %
Protocol: as §1

[13] = system: Poa annua (POAAN); assay: Herbicidal pre-emergence action, section A (Table A7); settings: Poa annua, pre-emergence, 504 h; application rate 1280 g/ha; visual grading after ca. 3 weeks vs untreated controls; read-out: pre-emergence activity against POAAN in %
Source text: as §2

[14] = system: Amaranthus retroflexus (AMARE); assay: Herbicidal pre-emergence action, section A (Table A11); settings: Amaranthus retroflexus, 504 h, application rate 320 g/ha, read-out: pre-emergence activity against AMARE in %
Source text: as §2

[15] = system: Echinochloa crus-galli (ECHCG); assay: Herbicidal pre-emergence action, section A (Table A3); settings: Echinochloa crus-galli, pre-emergence, 504 h; application rate 1280 g/ha; visual grading after ca. 3 weeks vs untreated controls; read-out: pre-emergence activity against ECHCG in %
Source text: as §2

[16] = system: Lolium rigidum (LOLRI); assay: Herbicidal pre-emergence action, section A (Table A5); settings: Lolium rigidum, pre-emergence, 504 h; application rate 1280 g/ha; visual grading after ca. 3 weeks vs untreated controls; read-out: pre-emergence activity against LOLRI in %
Source text: as §2

[17] = system: Digitaria sanguinalis (DIGSA); assay: Herbicidal pre-emergence action, section C (Table C12); settings: Digitaria sanguinalis, pre-emergence, 504 h; application rate 320 g/ha; visual grading after ca. 3 weeks; read-out: pre-emergence activity against DIGSA in %
Source text: (§3) Seeds of mono- and dicotyledonous weed plants and crop plants were sown, in plastic or organic planting pots, in sandy loam and covered with soil. The compounds according to the invention, formulated in the form of wettable powders (WP) or as emulsifiable concentrates (EC), were applied to the surface of the covering soil as aqueous suspension or emulsion, with the addition of 0.5% of an additive, at an application rate of 600 l of water/ha (converted). Following treatment, the pots were placed in a greenhouse and kept under optimum growth conditions for the test plants. The visual grading of the damage to the test plants was carried out after ca. 3 weeks in comparison to untreated controls (herbicidal effect in percent (%): 100% effect=plants have died off, 0% effect=as control plants).

[18] = system: Setaria viridis (SETVI); assay: Herbicidal pre-emergence action, section C (Table C8); settings: Setaria viridis, pre-emergence, 504 h; application rate 320 g/ha; visual grading after ca. 3 weeks; read-out: pre-emergence activity against SETVI in %
Source text: as §3

[19] = system: Triticum aestivum (TRZAS); assay: Post-emergence effects on crop plants, section F (Table F2); settings: Triticum aestivum, 504 h, application rate 320 g/ha, read-out: post-emergence activity against TRZAS in %
Source text: (§4) Seeds of mono- and dicotyledonous weed plants and crop plants were sown, in plastic or organic planting pots, in sandy loam, covered with soil and grown in a greenhouse under controlled growth conditions. 2 to 3 weeks after sowing, the test plants were sprayed in the single-leaf stage. The compounds according to the invention, formulated in form of wettable powders (WP) or as emulsifiable concentrates (EC), were sprayed onto the green plant parts as aqueous suspension or emulsion, with the addition of 0.5% of an additive, at an application rate of 600 l of water/ha (converted). The test plants were placed in the greenhouse for ca. 3 weeks under optimum growth conditions, and then the effect of the preparations was assessed visually in comparison with untreated controls (herbicidal effect in percent (%): 100% effect=plants have died off, 0% effect=as control plants). Tables F1 to F4 below show the effects of selected compounds of the general formula (I) according to Table 1 on various crop plants and an application rate corresponding to 320 g/ha or below obtained by the experimental procedure mentioned above.

[20] = system: Glycine max (GLXMA); assay: Post-emergence effects on crop plants, section F (Table F4); settings: Glycine max, 504 h, application rate 320 g/ha, read-out: post-emergence activity against GLXMA in %
Source text: as §4

[21] = system: Zea mays (ZEAMX); assay: Post-emergence effects on crop plants, section F (Table F1); settings: Zea mays, 504 h, application rate 80 g/ha, read-out: post-emergence activity against ZEAMX in %
Source text: as §4

[22] = system: Zea mays (ZEAMX); assay: Pre-emergence effects on crop plants, section D (Table D1); settings: application rate 320 g/ha; visual grading after ca. 3 weeks
Source text: (§5) Seeds of mono- and dicotyledonous weed plants and crop plants were sown, in plastic or organic planting pots, in sandy loam and covered with soil. The compounds according to the invention, formulated in the form of wettable powders (WP) or as emulsifiable concentrates (EC), were applied to the surface of the covering soil as aqueous suspension or emulsion, with the addition of 0.5% of an additive, at an application rate of 600 l of water/ha (converted).
(§6) Following treatment, the pots were placed in a greenhouse and kept under optimum growth conditions for the test plants. The visual grading of the damage to the test plants was carried out after ca. 3 weeks in comparison to untreated controls (herbicidal effect in percent (%): 100% effect=plants have died off, 0% effect=as control plants).
(§7) Tables D1 to D5 below show the effects of various compounds of the general formula (I) according to Table 1 on various crop plants and an application rate corresponding to 320 g/ha or below obtained by the experimental procedure mentioned above in Biological Examples, Section C.

[23] = system: Triticum aestivum (TRZAS); assay: Pre-emergence effects on crop plants, section D (Table D2); settings: application rate 320 g/ha; visual grading after ca. 3 weeks
Source text: as §5, §6, §7

[24] = system: Echinochloa crus-galli (ECHCG); assay: Herbicidal pre-emergence action, section C (Table C3); settings: Echinochloa crus-galli, pre-emergence, 504 h; application rate 320 g/ha; visual grading after ca. 3 weeks vs untreated controls; read-out: pre-emergence activity against ECHCG in %
Source text: as §3

CCCC(=O)N1CSc2cc(Br)c(-c3ccccc3Cl)nc21 [Example I-042, 1-[6-bromo-5-(2-chlorophenyl)[1,3]thiazolo[4,5-b]pyridin-3(2H)-yl]butan-1-one]
pest or weed control at 1280 g/ha [1]: 90%
pest or weed control at 1280 g/ha [2]: 90%
pest or weed control at 320 g/ha [3]: 90%
pest or weed control at 320 g/ha [4]: 90%
pest or weed control at 1280 g/ha [5]: 100%
pest or weed control at 320 g/ha [6]: 90%
pest or weed control at 1280 g/ha [7]: 90%
pest or weed control at 1280 g/ha [8]: 90%
pest or weed control at 1280 g/ha [9]: 100%
pest or weed control at 1280 g/ha [10]: 90%
pest or weed control at 1280 g/ha [11]: 90%
pest or weed control at 1280 g/ha [12]: 90%
pest or weed control at 1280 g/ha [13]: 100%
pest or weed control at 320 g/ha [14]: 90%
pest or weed control at 1280 g/ha [15]: 100%
pest or weed control at 1280 g/ha [16]: 90%

COC(=O)CCC(=O)N1CSc2cc(Br)c(-c3sccc3Cl)nc21 [Example I-077, methyl 4-[6-bromo-5-(3-chloro-2-thienyl)-2H-thiazolo[4,5-b]pyridin-3-yl]-4-oxo-butanoate]
pest or weed control at 320 g/ha [17]: 90%
pest or weed control at 320 g/ha [18]: 90%
percent crop plant damage (wheat, post-emergence) at 320 g/ha [19]: 20%
percent crop plant damage at 320 g/ha [20]: 10%
percent crop plant damage (phytotoxicity) on Zea mays, post-emergence at 80 g/ha [21]: 0%
pre-emergence activity against ZEAMX in % (crop plant damage) [22]: 10%
pre-emergence activity against TRZAS in % (crop plant damage) [23]: 0%
pest or weed control at 320 g/ha [24]: 90%
